# In patent publication US20250223284A1, “REVERSIBLE DPP1 INHIBITORS AND USES THEREOF” (Insmed Incorporated, priority 2023, published 2025):
# Target: mouse DPP1 enzyme (Mus musculus (Mouse), UniProt P97821)
# Test: Mouse DPP1 Enzyme IC50 Assay
# Format: biochemical
# Settings: active mouse DPP1 enzyme, H-Gly-Arg-AMC substrate, 10 min pre-incubation at 37° C., MES pH 5.5
# Description: Test articles were applied to active mouse DPP1 enzyme (R&D Systems; Minneapolis, MN) in Assay Buffer (50 mM MES pH 5.5, 50 mM NaCl, 5 mM DTT) in a total reaction volume of 125 μL. 25 μL of compound in Assay Buffer plus 5% DMSO was first added to 50 μL of active mouse DPP1 enzyme at a concentration of 62.5 pg/μL and allowed to pre-incubate for 10 minutes at 37° C. after which 50 μL of 1000 μM H-Gly-Arg-AMC substrate (Bachem; St. Torrance, CA) was added, giving final substrate concentration of 400 µM and a final DMSO concentration of 1%. Substrate cleavage was measured for 90 minutes at 37° C., with fluorescence at Excitation/Emission 350/450 nm measured every 5 minutes. DPP1 concentration was interpolated based on its activity relative to a standard curve of recombinant active mouse DPP1 enzyme. IC50 values for each compound were calculated via the XLFit (IDBS Version 5.3.1.3) Add-On to Microsoft Excel using the four parameter fit equation y=(A+((B−A)/(1+ ((C/x)^D)))), which appears as equation number 205 (4 Parameter Logistic Model or Sigmoidal Dose-Response Model) in XLFit. Default constraints were used for each Parameter. IC50 was defined as the compound concentration at which 50% of enzyme activity was inhibited when compared to the no-compound control.
# Sequence of mouse DPP1 enzyme (P97821 25-134): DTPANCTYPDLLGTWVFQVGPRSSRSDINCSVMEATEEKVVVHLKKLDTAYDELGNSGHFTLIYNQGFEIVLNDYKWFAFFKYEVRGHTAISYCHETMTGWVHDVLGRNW
# Sequence of mouse DPP1 enzyme (P97821 231-393): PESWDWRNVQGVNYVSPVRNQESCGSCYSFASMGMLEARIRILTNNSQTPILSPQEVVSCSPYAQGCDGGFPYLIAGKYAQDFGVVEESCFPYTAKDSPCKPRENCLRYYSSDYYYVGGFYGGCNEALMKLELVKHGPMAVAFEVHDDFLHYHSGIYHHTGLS
# Sequence of mouse DPP1 enzyme (P97821 394-462): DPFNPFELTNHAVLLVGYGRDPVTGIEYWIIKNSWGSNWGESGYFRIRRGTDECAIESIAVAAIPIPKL
row,SMILES,IC50
1,Cn1c(=O)oc2ccc(-c3ccc(C[C@@H](C#N)NC(=O)[C@@H]4CCCCCNC4)cc3)cc21 [drawing 502],629 nM
2,"CC[C@@]1(O)CNC[C@@H](C(=O)N[C@H](C#N)Cc2ccc(-c3ccc4oc(=O)n(C)c4c3)cc2)OC1 (single isomer, unassigned) [drawing 492]",36.9 nM
3,"CCO[C@]1(C)CNC[C@@H](C(=O)N[C@H](C#N)Cc2ccc(-c3ccc4oc(=O)n(C)c4c3)cc2)OC1 (single isomer, unassigned) [drawing 504]",1640 nM
4,"CC(C)[C@]1(O)CNC[C@@H](C(=O)N[C@H](C#N)Cc2ccc(-c3ccc4oc(=O)n(C)c4c3)cc2)OC1 (single isomer, unassigned) [drawing 494]",> 5000 nM
5,"Cn1c(=O)oc2ccc(-c3ccc(C[C@@H](C#N)NC(=O)[C@@H]4CNCCCCO4)cc3)cc21 (single isomer, unassigned) [drawing 497]",33.9 ± 4 nM
6,"CCO[C@@H]1CCNC[C@@H](C(=O)N[C@H](C#N)Cc2ccc(-c3ccc4oc(=O)n(C)c4c3)cc2)OC1 (single isomer, unassigned) [drawing 499]",6.05 ± 2 nM
7,"Cn1c(=O)oc2ccc(-c3ccc(C[C@@H](C#N)NC(=O)[C@@H]4CNC[C@](C)(O)CO4)cc3)cc21 (single isomer, unassigned) [drawing 491]",351 ± 223 nM
8,"Cn1c(=O)oc2ccc(-c3ccc(C[C@@H](C#N)NC(=O)C4CCCCCNC4)c(F)c3)cc21 (single isomer, unassigned) [drawing 500]",13.1 ± 3.7 nM
9,"CCO[C@@]1(C)CNC[C@@H](C(=O)N[C@H](C#N)Cc2ccc(-c3ccc4oc(=O)n(C)c4c3)cc2)OC1 (single isomer, unassigned) [drawing 503]",> 5000 nM
10,Cn1c(=O)oc2ccc(-c3ccc(C[C@@H](C#N)NC(=O)C4CCCCCNC4)cc3)cc21 (stereo partly drawn) [IA],63.4 nM
11,"CN1CC2(C1)OC(=O)c1ccc(-c3ccc(C[C@@H](C#N)NC(=O)[C@@H]4CNCCCCO4)cc3)cc12 (single isomer, unassigned) [drawing 498]",17.8 ± 2 nM
12,"Cn1c(=O)oc2ccc(-c3ccc(C[C@@H](C#N)NC(=O)[C@@H]4CNC[C@@]5(CCO5)CO4)cc3)cc21 (single isomer, unassigned) [drawing 496]",2.36 ± 0.3 nM
13,"CC[C@]1(O)CNC[C@@H](C(=O)N[C@H](C#N)Cc2ccc(-c3ccc4oc(=O)n(C)c4c3)cc2)OC1 (single isomer, unassigned) [drawing 493]",4040 nM
14,"CO[C@@H]1CCO[C@H](C(=O)N[C@H](C#N)Cc2ccc(-c3ccc4oc(=O)n(C)c4c3)cc2)CNC1 (single isomer, unassigned) [drawing 505]",7.04 nM
15,"Cn1c(=O)oc2ccc(-c3ccc(C[C@@H](C#N)NC(=O)[C@H]4CCCCCNC4)cc3)cc21 (single isomer, unassigned)",54 nM
16,"Cn1c(=O)oc2ccc(-c3ccc(C[C@@H](C#N)NC(=O)[C@H]4CCCCCNC4)c(F)c3)cc21 (single isomer, unassigned) [drawing 501]",148 ± 16 nM
17,"Cn1c(=O)oc2ccc(-c3ccc(C[C@@H](C#N)NC(=O)[C@@H]4CNCC5(CCO5)CO4)cc3)cc21 (single isomer, unassigned) [drawing 495]",4.2 ± 0.8 nM
18,"Cn1c(=O)oc2ccc(-c3ccc(C[C@@H](C#N)NC(=O)[C@@H]4CNCCCCO4)cc3)cc21 (single isomer, unassigned) [drawing 490]",41.4 ± 4.5 nM
